Here are results for one compound from patent publication US11312724B2 (ASCENTAGE PHARMA (SUZHOU) CO., LTD., priority 2021, dated 2022).

In data set [1] the test system is MIA PaCa-2 cell. In words: Cell proliferation assay (Celltiter-Glo), MIA PaCa-2. The class given is cell-based. Conditions: Homo sapiens, MIA PaCa-2, 72 h, 3 days. In outline:
(§1)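 Cells grew in RPMI-1640 with 10% FBS at 37 °C, 5% CO2, seeded at 5000/well during exponential growth. Compounds were tested at 0–10 μM in a 3-fold series for 3 days. Viability was read by CellTiter-Glo luminescence, and IC50 was taken from dose-response curves.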
Background: ATP-based viability assays read luminescence as a measure of living cells.

For data set [2], the system named is NCI-H358 cell. As to the kind of experiment: Cell proliferation assay (Celltiter-Glo), NCI-H358. The class given is cell-based. Conditions: Homo sapiens, NCI-H358, 72 h, 3 days. A digest of the protocol:
as §1

Data set [3] can be described thus: Mouse PK studies, single i.v. and p.o. dose. The format is in vivo, CD1 mice. Conditions: male, CD1, mouse, plasma; for half-life: terminal half-life.

SMILES strings stand for the structures.

By IC50 is commonly meant the concentration that gives 50% inhibition. The term AUC(0-inf) denotes the area under the concentration-time curve extrapolated to infinity. High values mean more exposure, low ones less exposure. Broadly, the AUC(0-t) is exposure summed from dosing to a finite time, without extrapolation to infinity. By MRT inf is commonly meant the average time that molecules of a dose stay in the body. By half-life is commonly meant the time in which the quantity being followed falls by half. A higher half-life goes with slow loss. As usually defined, the Cmax is the peak of the concentration-time curve. As a reminder, the bioavailability is the share of a dose that reaches the circulation, judged against a reference dose that is usually intravenous. In data set [1], `C=CC(=O)N1CCN(c2nc(OC[C@@H]3CCCN3C)nc3c2CC[C@@]2(CCc4c(Cl)cccc42)C3)C[C@@H]1CC#N` [Cpd. No. 53, 2-((S)-1-acryloyl-4-((R)-4-chloro-2′-(((S)-1-methylpyrrolidin-2-yl)methoxy)-2,3,5′,8′-tetrahydro-6′H-spiro[indene-1,7′-quinazolin]-4′-yl)piperazin-2-yl)acetonitrile] returned an IC50 of 1.1 nM. The same compound gave an IC50 in data set [2] of 2.5 nM. In data set [3] (2 mg/kg, IV 2 mpk), the total exposure AUC(0-inf) was determined as 1200 ng·h/mL, the AUC(0-t) amounted to 1200 ng·h/mL, the MRT inf was 0.824 h and the half-life is 1.45 h. In data set [3] (2 mg/kg, IV 2 mpk, read-out: Vss), the Vd turned out to be 1.37 L/kg. Moreover, in data set [3] (10 mg/kg, PO 10 mpk), the AUC(0-inf) was 2900 ng·h/mL, the AUC(0-t) was 2650 ng·h/mL, the peak level (Cmax) was 856 ng/mL and the MRT inf was 3.26 h. For the same compound, in data set [3] (10 mg/kg, PO 10 mpk), the half-life was 2.39 h. This compound also displayed a bioavailability in data set [3] (10 mg/kg, PO 10 mpk vs IV 2 mpk) of 48.2%.
